In article PMC7181277, “Synthesis and Biological Evaluation of New Antitubulin Agents Containing 2-(3′,4′,5′-trimethoxyanilino)-3,6-disubstituted-4,5,6,7-tetrahydrothieno[2,3-c]pyridine Scaffold” (Molecules, 2020):
Read-outs that look alike come from different tables or passages of the source.

Columns and labels:
[1] = tested on: murine leukemia (L1210) cells; experiment: In vitro antiproliferative assay, L1210 cells; type: cell-based; conditions: Mus musculus; murine leukemia L1210, 72 h, cell count; mean ± SE
Text: (§1) In Table 1 we report the in vitro antiproliferative activity of 2-(3′,4′,5′-trimethoxyanilino)-4,5,6,7-tetrahydrothieno[2,3-c]pyridine derivatives 3a–3j and the related 4,5,6,7-tetrahydrobenzo[b]thiophenes 3k–3p against a panel of three cell lines, which were derived from different cancer types, including murine leukemia (L1210), human T-lymphoblastoid leukemia (CEM), and human cervix carcinoma (HeLa) cells.
(§2) Murine leukemia L1210, human T-lymphocyte leukemia CEM, human cervix carcinoma (HeLa), and human chronic myelogenous leukemia K562 cells (3–5 × 10^4 cells) and a serial (5-fold) dilution of the test compounds were added to a 96-well microtiter plate. The cells were incubated for 72 h at 37 °C in a humidified 5% CO2 atmosphere. At the end of the incubation period, the cells were counted in a Coulter Counter (Coulter Electronics Ltd., Harpenden Herts, United Kingdom). The IC50 (50% inhibitory concentration) was defined as the concentration of compound that inhibited cell proliferation by 50%. The IC50 values represent the average (± standard deviation) of three independent experiments. Human peripheral blood mononuclear cells (PBMC) were obtained from healthy donors by centrifugation with Ficoll-Paque Plus (GE Healthcare Bio-Sciences AB, Uppsala).

[2] = tested on: human T-lymphoblastoid leukemia (CEM) cells; experiment: In vitro antiproliferative assay, CEM cells; type: cell-based; conditions: CCRF-CEM; human T-lymphocyte CEM, 72 h, cell count; mean ± SE
Procedure: as §2, with “The IC50 (50% inhibitory concentration) was defined as the concentration of compound that inhibited cell proliferation by 50%.” left out

[3] = tested on: human cervix carcinoma (HeLa) cells; experiment: In vitro antiproliferative assay, HeLa cells; type: cell-based; conditions: for fold more active than 2b against HeLa cells: relative to 2b (IC50: 41 μM); for IC50: human cervix carcinoma HeLa, 72 h, cell count, mean ± SE
Procedure: as §2, with “The IC50 (50% inhibitory concentration) was defined as the concentration of compound that inhibited cell proliferation by 50%.” left out

[4] = tested on: human chronic myelogenous leukemia K562 cells; experiment: In vitro antiproliferative assay, K562 cells; type: cell-based; conditions: 72 h; for IC50: Homo sapiens
Procedure: These values are 1.5-fold lower than those obtained with the 6-methoxycarbonyl derivative 3a against L1210 and HeLa cells, while both compounds were equipotent against CEM cells.
as §2

[5] = tested on: human peripheral blood mononuclear cells (PBMC); experiment: Antiproliferative activity in normal human cells (PBMC); type: cell-based; conditions: 72 h
Procedure: In order to investigate the selective antiproliferative activities of derivatives 3a and 3b in normal human cells, both these molecules were tested in vitro against human peripheral blood mononuclear cells (PBMC) isolated from healthy donors.
as §2

Bovine brain tubulin = experiment: Inhibition of tubulin polymerization (turbidimetric assembly); type: biochemical; conditions: tubulin at 10 μM, 20 min incubation; read-out: Tubulin assembly IC50 ± SD
Procedure: (§3) Bovine brain tubulin was purified as described previously. To evaluate the effect of the compounds on tubulin assembly in vitro [59], varying concentrations were preincubated with 10 μM tubulin in 0.8 M glutamate buffer at 30 °C and then cooled to 0 °C. After addition of GTP, the mixtures were transferred to 0 °C cuvettes in a recording spectrophotometer and warmed to 30 °C, and the assembly of tubulin was observed turbidimetrically. […] The ability of the test compounds to inhibit colchicine binding to tubulin was measured as described earlier, except that the reaction mixtures contained 1 μM tubulin, 5 μM of [^3H]colchicine, and test compounds 3a or 3b.

[6] = tested on: tubulin (colchicine site); experiment: Inhibition of [3H]colchicine binding to tubulin; parameters: species or system Bovine; conditions: tubulin 1 μM, colchicine 5 μM, compound 5 μM
Procedure: as §3

K562 cells [7] = experiment: Cell cycle distribution by flow cytometry (Muse Cell Analyzer); type: cell-based, human; conditions: K562, 72 h, three experiments, average ± S.D.; for percentage of G2/M-phase cells at IC50: at IC50 (3a 0.75 μM, 3b 0.70 μM); for percentage of G2/M-phase cells at IC75: at IC75 (3a 1.0 μM, 3b 0.90 μM)
Procedure: The cells were cultured for 72 h in the presence of two different concentrations (IC50 and IC75) for each tested derivative and the obtained results were compared with non-treated K562 cells as control.
Human leukemia K562 cells were treated with compounds 3a or 3b, and analysis of the distribution of the cells through the cell cycle was performed with the Muse Cell Analyzer instrument (Millipore Corporation, Billerica, MA, USA). Assay and cell counting were performed according to the instructions supplied by the manufacturer. Samples were collected after the treatment and washed in PBS. For analysis, 5 × 10^5 cells were resuspended in 200 μL of Muse Cell Cycle Reagent, incubated for 30 min at room temperature, and the cell suspension was transferred to a 1.5 mL microcentrifuge tube prior to analysis. Cells were analyzed by fluorescence-activated cell sorting analysis using a Muse Cell Analyzer.

K562 cells [8] = experiment: Apoptosis assay (Muse Annexin V & Dead Cell Kit); type: cell-based, human; conditions: K562, 72 h, representative experiment; for cells undergoing apoptosis (total) at IC50: at IC50 (3a 0.75 μM, 3b 0.70 μM); for cells undergoing apoptosis (total) at IC75: at IC75 (3a 1.00 μM, 3b 0.90 μM)
Text: This phospholipid flips from the inner to the outer leaflet of the plasma membrane during apoptosis. Positive staining with annexin-V correlates with the loss of plasma membrane polarity, but this staining precedes the complete loss of membrane integrity that accompanies the later stages of cell death, resulting from either apoptosis or necrosis. In contrast, PI can only enter cells after complete loss of membrane integrity. Thus, dual staining for annexin-V and with PI permits discrimination between unaffected cells (annexin-V^−/PI^−), early apoptotic cells (annexin-V^+/PI^−), late apoptotic cells (annexin-V^+/PI^+), and necrotic cells (annexin-V^−/PI^+).
Apoptosis assays on K562 cells were performed with the Muse Cell Analyzer instrument, and assays were performed according to the instructions supplied by the manufacturer. The Muse Annexin V & Dead Cell Kit employs annexin V to detect phosphatidyl serine (PS) on the external membrane of apoptotic cells. A fluorescent DNA intercalator (7-ADD: 7-aminoactinomycin D) is also used as an indicator of cell membrane integrity. From live, healthy cells, as well as early apoptotic cells, 7-ADD is excluded while it is able to bind DNA in cells in late apoptosis and in dead cells. Cells were washed with sterile PBS 1X, suspended, and diluted (1:2) with the Muse Annexin V & Dead Cell reagent. Samples were gently mixed and incubated at room temperature, protected from the light for 15 min. Samples were analyzed using a Muse Cell Analyzer, and data from prepared samples were acquired and recorded utilizing the Annexin V and Dead Cell Software Module (Millipore).

[9] = tested on: L1210, CEM, and HeLa cells; experiment: Antiproliferative activity, panel of three cancer cell lines; type: cell-based; conditions: for IC50: span over L1210, CEM and HeLa, read-out: IC50 values against the panel of three cancer cell lines
Text: as §1, §2

[10] = phytohemagglutin (PHA)-stimulated PBMC, read-out: IC50 PBMC, PHA-stimulated
[11] = resting PBMC from healthy donors, read-out: IC50 PBMC, resting

IC50 [1]	IC50 [2]	IC50 [3]	IC50 [4]	IC50 (Bovine brain tubulin)	Colchicine binding % ± SD (inhibition of [3H]colchicine binding) [6]	percentage of G2/M-phase cells at IC50 (K562 cells [7])	cells undergoing apoptosis (total) at IC50 (K562 cells [8])	IC50 [9]	fold lower IC50 than 3a ([9]; against L1210 and HeLa cells)	SMILES	fold more active than 2b against HeLa cells [3]	IC75 K562 [4]	IC50 [5, 10]	IC50 [5, 11]	percentage of G2/M-phase cells at IC75 (K562 cells [7])	cells undergoing apoptosis (total) at IC75 (K562 cells [8])
4700 ± 400 nM	2900 ± 2100 nM	1900 ± 1200 nM	750 nM	3800 ± 50 nM	29 ± 1%	33.6% ± 1.1%	29.64%	1900 to 4700 nM	–	COC(=O)N1CCc2c(sc(Nc3cc(OC)c(OC)c(OC)c3)c2C#N)C1 [Compound 3a, Methyl 3-cyano-2-((3,4,5-trimethoxyphenyl)amino)-4,5-dihydrothieno[2,3-c]pyridine-6(7H)-carboxylate]	40 fold	1000 nM	> 20000 nM	> 20000 nM	34.9% ± 1.3%	46.68%
2800 ± 2300 nM	2300 ± 1700 nM	1100 nM	700 nM	3400 ± 50 nM	31 ± 1%	30.3% ± 1.3%	32.87%	1100 to 2800 nM	1.5 fold	CCOC(=O)N1CCc2c(sc(Nc3cc(OC)c(OC)c(OC)c3)c2C#N)C1 [Compound 3b, Ethyl 3-cyano-2-((3,4,5-trimethoxyphenyl)amino)-4,5-dihydrothieno[2,3-c]pyridine-6(7H)-carboxylate]	20 fold	900 nM	> 20000 nM	> 20000 nM	33.5% ± 0.6%	56.01%
